What was measured:
[1] = tested on: platelet agregation induced by PAF; assay: Inhibition of platelet agregation induced by PAF; assay type: cell-based, New Zealand rabbits; conditions: Oryctolagus cuniculus, New Zealand rabbit platelets, agregometer at 57° C., Table I
Description: 1) Inhibition of platelet agregation induced by PAF
This experimentation was conducted according to the method of R. KINLOUGH. RATHBONE, J. P. CAZENAVE, M. PACKHAM and F. MUSTARD, Lab. Invest. 48, 98, 1980. In this test, New Zealand rabbits were used (male New Zealand rabbits of an average weight of 5 kg).
The determinations are made on a chrono-log Coultronics agregometer, at […] coupled with a graphic recorder; the results of these determinations (in molecular concentration) are reported on the table I on the central column.

[2] = biological target: benzodiazepine receptors; assay: Inhibition of the binding to benzodiazepine receptors (rat brains); conditions: rat brains incubated 1 h 30 at 4° C.; 3H-RO-15-4788 and 3H-RO-5-4864 as tracers; Table I; read-out: BDZ receptors (inhibition of the binding to benzodiazepine receptors)
Excerpt: 2) Inhibition of the binding to benzodiazepine receptors
The interest of the previous experimentation depends on the results obtained in this experimentation: as a compound of the invention has a benzodiazepine like structure, it is important to check whether the specific benzodiazepine activity would not appear at the dose where platelet agregation was inhibited.
Therefore, this experimentation has been conducted according to the method of MOHLER H. and RICHARD J. G. Agonist and antagonist benzodiazepine receptor intereaction in vitro, Nature, vol. 294, 763°-765, 1981.
This experimentation was conducted on rat brains incubated 1 h 30 at 4° C. using ^3 H-RO-15-4788 and ^3 H-RO-5-4864 (NEN) as tracers and […] and RO-5-4864 as reference antagonists.
The results in molecular concentration are reported in the table I, on the right hand column.

[3] = Toxicity on the mice; conditions: mouse, in vivo, IP route
[4] = tested on: bronchospasm induced by the PAF; assay: Action on the bronchospasm induced by the PAF in anaesthetized guinea-pigs; assay type: in vivo, guinea-pig; conditions: male Hartley guinea-pigs, oral, 1 hour before PAF i.v.; for Percentage of action: change versus controls; for Percentage of bronchoconstriction: controls 79. ± 5.55, dose not given
Excerpt: 3) Action on the bronchospasm induced by the PAF
The PAF intravenous injection in anaesthetized guinea-pigs induces a bronchoconstriction with a leucopeny and a thrombocytopeny, according to the method described in S. DESQUAND, C. TOUVAY, J. RANDON, V. LAGENTE, B. VILAIN, I. MARIDONNEAU-PARINI, A. ETIENNE, J. LEFORT, P. BRAQUET and B. VARGAFTIG. Interference of BN 52021 (Ginkolide B) with the bronchopulmonary effects of PAF-acether in the guinea-pig. Eur. J. Pharmacol. 127: 83-95, 1986.
Male Hartley guinea-pigs (400-450 g) (Charles River) anaesthetized with urethane (2 g/kg IP), then are thracheotomized and submitted to a forced respiration with a breathing pump:70-80 strokes/mn, 1 ml of air/ 100 g per stroke. A catheter is introduced in the jugular vein for the injections, an other is introduced in the carotic artery for blood takings. The initial resistance is kept constant under the pressure of 10 cm of water in accordance with the Konzett and Rossler method and the air in excess is measured with a transducor for bronchospasm UGO BASILE together with an enregistror GEMINI. The guinea-pigs had received an IV injection of pancuronium (Pavulon) to inhibit their spontaneous respiration.
The compound according to the invention and the reference compound WEB 2086 (see the above cited Boehringer patent) have been prepared as suspension in gummy water and administrated orally 1 hour before the stimulation by the PAF.
The bronchoconstriction is appreciated by the calculation of the percentage of bronchoconstriction [formula] wherein A stands for induced bronchoconstriction in mm and B stands for maximum bronchoconstriction in mm.

| Structure (SMILES) | IC50 [1] | IC50 [2] | LD50 [3] | Percentage of action [4] | Percentage of bronchoconstriction [4] |
| --- | --- | --- | --- | --- | --- |
| Cc1nnc2n1-c1sc3c(c1C(c1ccccc1Cl)=NC2)CCN(C(=O)Nc1cccc(Cl)c1Cl)C3 [Example 17, 6-(2-chlorophenyl)-9-(2,3-dichloro)phenylcarbamoyl-7,8,9,10-tetrahydro-1-methyl 4H-pyrido[4',3':4,5]thieno[3,2-f]1,2,4-triazolo[4,3-a]1,4-diazepine] | 55 nM | 920 nM | 400 to 1000 mg/kg |  |  |
| Cc1nnc2n1-c1sc3c(c1C(c1ccccc1Cl)=NC2)CCN(C(=S)NC(C)C)C3 [Example 1, 6-(2-chlorophenyl)-9-isopropylthiocarbamoyl-7,8,9,10-tetrahydro-1-methyl4H-pyrido[4',3':4,5]thieno[3,2-f]1,2,4-triazolo[4,3-a]1,4-diazepine] | 32.8 nM | 7000 nM |  | -70.4% | 23.4% |
| Cc1nnc2n1-c1sc3c(c1C(c1ccccc1Cl)=NC2)CCN(C(=O)Nc1ccc(C(C)(C)C)cc1)C3 [Example 10, 6-(2-chlorophenyl)-9-(4-tertbutyl)phenylcarbamoyl-7,8,9,10-tetrahydro-1-methyl 4H-pyrido[4',3':4,5]thieno [3,2-f]1,2,4-triazolo[4,3-a]1,4-diazepine] | 8.8 nM | 5250 nM | 400 to 1000 mg/kg | -66.2% | 26.7% |
| Cc1nnc2n1-c1sc3c(c1C(c1ccccc1Cl)=NC2)CCN(C(=O)Nc1ccc(Oc2ccccc2)cc1)C3 [Example 18, 6-(2-chlorophenyl)-9-(4-phenoxy)phenylcarbamoyl-7,8,9,10-tetrahydro-1-methyl 4H-pyrido[4',3':4,5]thieno[3,2-f]1,2,4-triazolo[4,3-a]1,4-diazepine] | 33 nM | 860 nM | 400 to 1000 mg/kg | -81.8% | 14.1% |
| Cc1nnc2n1-c1sc3c(c1C(c1ccccc1Cl)=NC2)CCN(C(=O)NC(C)(C)C)C3 [Example 3, 6-(2-chlorophenyl)-9-tertbutylcarbamoyl-7,8,9,10-tetra-hydro-1-methyl4H-pyrido[4',3':4,5]thieno[3,2-f]1,2,4-triazolo [4,3-a]1,4-diazepine] | 17.1 nM | 430 nM |  | -63.7% | 28.7% |
| COc1ccc(NC(=S)N2CCc3c(sc4c3C(c3ccccc3Cl)=NCc3nnc(C)n3-4)C2)cc1 [Example 7, 6-(2-chlorophenyl)-9-(4-methoxy)phenylthiocarbamoyl-7,8,9,10-tetrahydro-1-methyl4H-pyrido[4',3':4,5]thieno[3,2-f]1,2,4-triazolo[4,3-a]1,4-diazepine] | 301 nM | 2000 nM |  | -83.5% | 13 ± 4.39% |
| Cc1nnc2n1-c1sc3c(c1C(c1ccccc1Cl)=NC2)CCN(C(=S)NS(=O)(=O)c1ccccc1)C3 [Example 30, 6-(2-chlorophenyl)-9-(phenylsulfonyl)thiocarbamoyl-7,8,9,10-tetrahydro-1-methyl-4H-pyrido[4',3':4,5]thieno[3,2-f]1,2,4-triazolo[4,3-a]1,4-diazepine] | 11 nM | 630 nM |  | -52.9% | 37.2% |
| Cc1nnc2n1-c1sc3c(c1C(c1ccccc1Cl)=NC2)CCN(C(=S)Nc1ccc(C(C)(C)C)cc1C(C)(C)C)C3 [Example 22, 6-(2-chlorophenyl)-9-(2,4-diterbutyl)phenylthiocarbamoyl-7,8,9,10-tetrahydro-1-methyl-4H-pyrido[4',3':4,5]thieno[3,2-f]1,2,4-triazolo[4,3-a]1,4-diazepine] | 366 nM | 630 nM |  | -67.7% | 25.5% |
| COc1cc(NC(=O)N2CCc3c(sc4c3C(c3ccccc3Cl)=NCc3nnc(C)n3-4)C2)cc(OC)c1OC [Example 8, 6-(2-chlorophenyl)-9-(3,4,5-trimethoxy)phenylcarbamoyl-7,8,9,10-tetrahydro-1-methyl 4H-pyrido[4',3':4,5]thieno [3,2-f]1,2,4-triazolo [4,3-a]1,4-diazepine] | 11.5 nM | 1500 nM |  | -79.5% | 16.2% |
| CCCCCCCCCCCCCCCCNC(=S)N1CCc2c(sc3c2C(c2ccccc2Cl)=NCc2nnc(C)n2-3)C1 [Example 5, 6-(2-chlorophenyl)-9-hexadecylthiocarbamoyl-7,8,9,10-tetrahydro-1-methyl4H-pyrido[4',3':4,5]thieno [3,2-f]1,2,4-triazolo [4,3-a]1,4-diazepine] | 297 nM | 63000 nM |  | -61.6% | 30.3% |
| Cc1nnc2n1-c1sc3c(c1C(c1ccccc1Cl)=NC2)CCN(C(=O)Nc1ccc(C(F)(F)F)cc1)C3 [Example 14, 6-(2-chlorophenyl)-9-(4-trifluoromethyl)phenylcarbamoyl-7,8,9,10-tetrahydro-1-methyl 4H-pyrido[4',3':4,5]thieno[3,2-f]1,2,4-triazolo[4,3-a]1,4-diazepine] | 150 nM | 70500 nM |  | -38.5% | 48.6% |
| Cc1nnc2n1-c1sc(CCC(=O)N3CCOCC3)cc1C(c1ccccc1Cl)=NC2 [WEB 2086, reference compound] |  |  |  | -68.0% | 25.3% |
| Cc1nnc2n1-c1sc3c(c1C(c1ccccc1Cl)=NC2)CCN(C(=S)NCc1ccco1)C3 [Example 24, 6-(2-chlorophenyl)-9-(2-furfuryl)thiocarbamoyl-7,8,9,10-tetrahydro-1-methyl-4H-pyrido[4',3':4,5]thieno[3,2-f]1,2,4-triazolo[4,3-a]1,4-diazepine] | 48 nM | 650 nM |  | -57.9% | 33.3% |
| Cc1nnc2n1-c1sc3c(c1C(c1ccccc1Cl)=NC2)CCN(C(=O)Nc1ccc(F)cc1F)C3 [Example 29, 6-(2-chlorophenyl)-9-(2,4-difluoro)phenylcarbamoyl-7,8,9,10-tetrahydro-1-methyl-4H-pyrido [4',3':4,5]thieno[3,2-f]1,2,4-triazolo[4,3-a]1,4-diazepine] | 58.6 nM | 220 nM |  |  |  |
| Cc1nnc2n1-c1sc3c(c1C(c1ccccc1Cl)=NC2)CCN(C(=O)NS(=O)(=O)N1CCOCC1)C3 [Example 36, 6-(2-chlorophenyl)-9-(4-morpholinylsulfonyl)carbamoyl-7,8,9,10-tetrahydro-1-methyl-4H-pyrido[4',3':4,5]thieno[3,2-f]1,2,4-triazolo[4,3-a]1,4-diazepine] | 6.1 nM | 7250 nM |  |  |  |
| Cc1nnc2n1-c1sc3c(c1C(c1ccccc1Cl)=NC2)CCN(C(=S)Nc1ccc(C(F)(F)F)cc1)C3 [Example 15, 6-(2-chlorophenyl)-9-(4-trifluoromethyl)phenylthiocarbamoyl-7,8,9,10-tetrahydro-1-methyl 4H-pyrido[4',3':4,5]thieno[3,2-f]1,2,4-triazolo[4,3-a]1,4-diazepine] | 220 nM | 1250 nM |  |  |  |
| Cc1nnc2n1-c1sc3c(c1C(c1ccccc1Cl)=NC2)CCN(C(=S)NC1CCCCC1)C3 [Example 26, 6-(2-chlorophenyl)-9-cyclohexylthiocarbamoyl-7,8,9,10-tetrahydro-1-methyl-4H-pyrido[4',3':4,5]thieno[3,2-f]1,2,4-triazolo[4,3-a]1,4-diazepine] | 53.3 nM | 4100 nM |  |  |  |

Source: US5492906A, “Derivatives of thieno-triazolo-diazepine and therapeutic compositions containing them” (Societe de Conseils de Recherches et d'Applications …, priority 1989, dated 1996)
